Data on six molecules can be found in patent US11845992B2, “Compositions and methods for predicting response and resistance to CDK4/6 inhibition” (DANA-FARBER CANCER INSTITUTE, INC., priority 2017, dated 2023).

For experiment [1], the system named is GFP-positive parental T47D cells. As to the kind of experiment: GFP co-culture resistance transmission assay. The settings on record: 72 hours co-culture, exosome production inhibited.
Procedure: FIG. 11A is a bar graph, wherein cells were treated with either DMSO, 10 μM GW4869 or 10 μM manumycin A for 72 hours prior to exosome harvest and quantification. […] Subsequently, cells were harvested and analyzed by flow cytometry for GFP expression and cell cycle profile.
Experiment [2] relates to T47D cells. As to the kind of experiment: Flow cytometry cell cycle analysis. Type of experiment: cell-based. For orientation: Flow cytometry measures light scatter and fluorescence of single cells or particles in a stream.
The subject of experiment [3] is T47D cells. As to the kind of experiment: Growth inhibition assay, 5 days, normalized to DMSO. Format: cell-based. The settings on record: for change of GI50 by CDK6 overexpression: CDK6 overexpressing vs parental T47D; for change of GI50 by miR-432 overexpression: parental T47D overexpressing miR-432 (FIG. 10A). The protocol:
(§1) Subsequently, cell growth was quantified and normalized to DMSO treated control.
Subsequently, cell growth was quantified and normalized to DMSO treated control. BLISS Synergy/antagonism score was modelled using Combenefit software. FIG. 12C is a graph, wherein T47D parental and resistant cells were treated with escalating dose of galunisertib for 5 days. Subsequently, cell growth was quantified and normalized to DMSO treated control.

The test system of experiment [4] is estrogen receptor positive (ER+) and HER2 negative breast cancer. The following applies: patients; previous results; cited from earlier work.
Experiment [5] deals with palbociclib resistant MCF7 xenografts. Nature of the experiment: Palbociclib resistant MCF7 xenograft with treatment holiday. Format: in vivo, mice. The following applies: 100 mg/kg/day oral gavage, after 28 days treatment holiday. The protocol:
Female nude mice (NCr-Foxn1^NU, Tactonic Laboratories) were maintained and handled in isolators under specific pathogen-free conditions for tissue distribution and efficacy studies in accordance with local guidelines and therapeutic interventions approved by the Animal Care and Use Committee of Dana-Farber Cancer Institute. Mice were implanted with 17β-estradiol pellets (0.36 mg, 90-day release, Innovative Research of America) prior to cell implantation. […] Tumors were measured throughout the experiment and relative tumor volume calculated.

Experiment [6] deals with T47D cells. As to the kind of experiment: cells. Type of experiment: cell-based. The settings on record: for CC50: Homo sapiens, T47D. The protocol: Cells were incubated for 14 to 21 days to allow colony formation. Colonies were fixed and permeabilised using Carnoy's fixative (75% methanol, 25% Acetic acid) and stained with 1% crystal violet and counted.
Cells stably expressing shRNA, miRNA or cDNA were generated using lentiviral transfection, as previously described using the pLKO.1 or pLEX-307 backbone (Moffat, J. et al., Cell 124: 1283-1298 (2006)). Multiple stable cell lines were generated for each protein knockdown; shRNA sequences were obtained from the RNAi Consortium database (Moffat, J. et al., Cell 124: 1283-1298 (2006)). CDK6 GeneArt cDNA sequences (K43M (Hu, M. G. et al., Blood 117: 6120-6131 (2011)), S178P (Bockstaele, L. et al., Mol. Cell Biol. 29: 4188-4200 (2009)) and R31C (Hu, M. G. et al., Blood 117: 6120-6131 (2011)) were purchased from ThermoFisher and cloned into the pLEX-307 backbone. For miRNA overexpression, ˜500 bp of DNA encompassing each miRNA sequence was PCR purified and cloned into the pLEX-307 backbone, miRNA mimics were purchased and transfected into cells as a positive control for miRNA detection. Protein expression/miRNA expression/knockdown was confirmed after 5 days of selection in puromycin (1 μg/ml for both T47D and MCF7).
CDK6 by CRIPSR/Cas9 was performed as previously described (Sanjana, N. E. et al., Nat. Meth 11: 783-784 (2014)). The following sgRNA sequence was cloned into the LentiCRIPSR v2 vector-sgCDK6-7 (targeting the 5′UTR): […] (SEQ ID NO: 2). Cells were selected using 1 μg/ml puromycin and protein knockout confirmed after ˜12 days.

In experiment [7] the test system is CDK6 protein in T47D cells. As to the kind of experiment: Western blot of CDK6 protein expression. Format: cell-based. The settings on record: palbociclib exposure up to 6 days. The protocol: Cells were lysed with RIPA buffer (10 mM Tris, pH 7.5, 1% Nonidet-P40, 2 mM Na2EDTA, 150 mM NaCl) plus protease inhibitors (Calbiochem) and protein estimation was performed by Pierce assay. Gel electrophoresis was performed with Bis-Tris 4-12% (v/v) polyacrylamide gradient gels (ThermoFisher). Samples were transferred onto Immobilin-P PVDF membrane (EMD Millipore), and probed with primary antibodies against either CDK1, CDK2, CDK4, CDK6, Cyclin D1, Cyclin D3, Cyclin E, p2′7, SMAD3, SMAD4, TGFβ, TGFβR3 (Santa Cruz), pRB (Cell signaling) or actin (Genescript). Goat anti-rabbit or goat anti-mouse HRP-linked secondary antibodies (1:1000; Dako) and ECL reagent (Perkin Elmer) were used for protein detection. Cytokines were analyzed using the Human Cytokine Array Kit performed per manufactures instructions (R&D Systems).
In general terms: A western blot detects proteins with antibodies after separation by electrophoresis.

The subject of experiment [8] is T47D cells. Nature of the experiment: Annexin V apoptosis assay. The settings on record: 48 hours.
In another experiment the test system is MCF7 cells. Nature of the experiment: Growth inhibition assay, 5 days, normalized to DMSO. Type of experiment: cell-based. The following applies: for change of GI50 by CDK6 overexpression: CDK6 overexpressing vs parental MCF7 (printed MCG-7); for change of GI50 by miR-432 overexpression: parental MCF7 overexpressing miR-432 (FIG. 10B).
Excerpt: as §1

The test system of experiment [9] is parotid cancer harboring CDKN2A/B loss. The following applies: one patient; cited from earlier work.

“Also recorded” adds a separate entry of the source. Read-outs that look alike come from different tables or passages of the source.

Take `O=C(/C=C/c1ccc(/C=C/C(=O)Nc2ccc(C3=NCCN3)cc2)cc1)Nc1ccc(C2=NCCN2)cc1` [GW4869]: the “G1 population of GFP-positive parental cells co-cultured with resistant cells” value in [1] is recorded as “significant increase”.

Consider `Cc1cccc(-c2nn3c(c2-c2ccnc4ccc(C(N)=O)cc24)CCC3)n1` [galunisertib], for which the “effect on palbociclib G1 arrest” value in the experiment on T47D cells [2] (in combination with palbociclib, T47D, 24 hours) is on record as “prevent G1 arrest”. Moreover, the “interaction with palbociclib (BLISS synergy/antagonism)” value in the experiment with T47D cells [3] (combined with palbociclib, parental and resistant T47D cells) is given as “significantly antagonistic”. Further, the “effect on growth when used alone” value in the experiment on T47D cells [3] (parental or resistant T47D cells, 5 days) is on record as “no effect”.

As to `N#Cc1ccc(C(c2ccc(C#N)cc2)n2cncn2)cc1` [letrozole], the progression free survival in [4] was 14.5 months.

In the case of `CCCC[C@@H](C)/C=C(C)/C=C(\C)C(=O)NC1=C[C@@](O)(/C=C/C=C/C=C/C(=O)NC2=C(O)CCC2=O)[C@@H]2O[C@@H]2C1=O` [manumycin A], in [1], the “G1 population of GFP-positive parental cells co-cultured with resistant cells” value is reported as “significant increase”.

Turning to `CC(=O)c1c(C)c2cnc(Nc3ccc(N4CCNCC4)cn3)nc2n(C2CCCC2)c1=O` [palbociclib], the “sub-G1 DNA content compared to control cells” value in the experiment on T47D cells [2] (CDK6-depleted T47D cells, 100 nM, 24 hours) is “significantly more”. Moreover, the “cells in the G1 phase of the cell cycle” value in the experiment on T47D cells [2] (T47D, 100 nM, initial exposure (week 0)) was “more than 90%”. For the same molecule, in the experiment with T47D cells [2] (parental T47D, 100 nM or 300 nM, persisted for 14 days), the “cell cycle effect in parental cells” value is “sustained G1 arrest”. Also, the “cell cycle arrest on re-challenge” value with T47D cells [2] (resistant cells after 6 weeks in drug-free media, 100 nM for 24 hours) is “indistinguishable from parental cells”. In experiment [5], the “tumor burden after re-introduction of treatment” value is “substantial regression of all but 1 tumor; also recorded: marked decrease”. Also, the “change of GI50 by CDK6 overexpression” value in the experiment on T47D cells [3] and in the experiment with MCF7 cells was “significantly increased” each time. Further, the “change of GI50 by miR-432 overexpression” value with T47D cells [3] and in the experiment with MCF7 cells was “significantly increased” each time. The CC50 in the experiment on T47D cells [6] (read-out: LC50, survival after palbociclib treatment, CDK6 knockout T47D cells (sgK6-7)) came out at 34.2 nM; in the experiment on T47D cells [6] (read-out: LC50, survival after palbociclib treatment, INK4-insensitive CDK6 (R31C) T47D cells), 632 nM; with T47D cells [6] (read-out: LC50, survival after palbociclib treatment, constitutively active CDK6 (S178P) T47D cells), 269 nM; in the experiment with T47D cells [6] (read-out: LC50, survival after palbociclib treatment, control T47D cells (sgNT)), 66.2 nM; with T47D cells [6] (read-out: LC50, survival after palbociclib treatment, kinase dead CDK6-expressing T47D cells (K43M)), 26.6 nM; in the experiment on T47D cells [6] (read-out: LC50, survival after palbociclib treatment, wild-type CDK6 (WT) T47D cells) it was 229 nM. Further, the “survival after palbociclib treatment compared to non-target shRNA control” value in the experiment on T47D cells [6] (shRNA-mediated CDK6-depleted T47D cells) is given as “significantly lower survival”. In addition, the “effect on CDK6 expression” value in [7] is “no observable effect”. For the same molecule, the apoptosis entry in the experiment on T47D cells [8] (CDK6 knockdown and knockout T47D cells) was “marked increase”. Besides, in the experiment with T47D cells [8] (shNT-expressing T47D cells), the “effect on apoptotic fraction” value is “no effect”.

In the case of `CN(C)C(=O)c1cc2cnc(Nc3ccc(N4CCNCC4)cn3)nc2n1C1CCCC1` [ribociclib], the “change of GI50 by CDK6 overexpression” value in the experiment with T47D cells [3] and in the experiment on MCF7 cells was “significantly increased” in each case. Further, the “cross-resistance of palbociclib resistant cells” value in the experiment on T47D cells [3] (palbociclib resistant (100 nM) T47D vs parental) and in the experiment with MCF7 cells (palbociclib resistant (100 nM) MCF7 vs parental) was “significantly more resistant” in each case. For the same molecule, the “change of GI50 by miR-432 overexpression” value with T47D cells [3] and with MCF7 cells was “significantly increased” each time. Also, in [9], the clinical response entry is given as “partial response”.
